Experiments:
AGS = test: Antiproliferative activity against human AGS cells assessed as reduction in cell viability incubated for 72 hrs by CCK-8 assay; type: functional, cell-based
MGC-803 = test: Antiproliferative activity against human MGC-803 cells assessed as reduction in cell viability measured after 72 hrs by CCK-8 assay; type: functional, cell-based; conditions: MGC-803, 72 h

## C[C@@H](C(=O)N(Cc1ccc(C2CCCCC2)cc1)c1ccc(B(O)O)cc1)N(C)S(=O)(=O)c1c(F)c(F)c(F)c(F)c1F
AGS
  IC50: 2570 nM
MGC-803
  IC50: 4.71 µM
